Results from patent publication US11859203B2, “Cell culture methods” (UCB BIOPHARMA SRL, priority 2017, dated 2024).

Key:
Type in all cases: cell-based, Chinese Hamster
[1] = system: CHO-DG44 cells from cell line 1; assay: Fed-batch Ambr15 mini bioreactor culture, different replacement levels, cell line 1 (Example 5); settings: at optimum, around 70% of replacement
Protocol: We tested different concentrations of cysteine/cystine derivatives on the improvement on the APG level of a recombinant protein preparation produced in cell culture cultivated in mini bioreactors. CHO-DG44 cells from cell line 1 were inoculated in 12 mL basal media at a seeding density of 0.35×10^6 cells/mL in Ambr15 bioreactors (Sartorius). The cells were cultivated in fed-batch mode during 14 days. The DO was maintained at 40% and the pH was maintained 7.0±0.2 with an automatic CO2 sparging regulation. Viable cell concentration and cell viability were measured daily using a ViCell automated cell counter (Beckman Coulter). Cells were cultured in a fed-batch mode with a daily bolus addition of Feed. The basal media contained 0.04 mmol/L cysteine+0.38 mmol/L cystine. The Feed contained 153.3 mmol/L of cystine. Over the entire 14-day production phase, the total volume of added Feed corresponded to 4.7% (v/v) of the culture start volume.
Different percentages of cysteine present in the Feed was replaced by different cysteine- and cystine analogs. Table 4 provides an overview of different percentages tested and their equivalence in molar ratio relative to cysteine or cystine. E.g. for N-Acetyl-L-cysteine 10% means that 10% molar amount of cysteine equivalent has been replaced by 10% molar amount of N-Acetyl-L-cysteine; for N,N′-Diacetyl-L-cystine, 10% means that 10 molar amount of cystine equivalent has been replaced with 10% molar amount of N,N′-Diacetyl-L-cystine. At the end of the 14 days of culture, the cell culture fluid was harvested by centrifugation. The supernatant was then purified using a protein-A affinity chromatography (GE). The protein-A eluates were used for the charge variants determination using isocapillary focusing (PROTEINSIMPLE iCE3).

[2] = system: cell line 1; assay: Reproducibility in 2 L bioreactor, cell line 1, average of data sets 1 and 2 (Example 4); settings: 50% replacement
Protocol: (§1) The ability of cysteine/cystine derivatives to reduce color and acidic species of a recombinant protein preparation produced in cell culture was evaluated in a bioreactor for two cell lines. This model is more representative of the large-scale production than the shake flask due to the geometry and additional control. CHO-DG44 cells from cell line 1 and 2 were inoculated in 1300 mL of basal media at a seeding density of 0.35×10^6 cells/mL in 2 L stirred bioreactor (Sartorius). The cells were cultivated during 14 days in fed-batch mode. The cell cultures were agitated at 280 rpm and the DO was maintained at 40%. The cell culture was maintained at pH 7.0±0.2 with an automatic CO2 sparging regulation. Cells were cultured in a fed-batch mode with bolus addition of Feed every day of culture. The basal media contained 0.04 mmol/L of cysteine+0.38 mmol/L of cystine. The Feed contained 153.3 mmol/L of cystine. Over the entire 14-day production phase, the total volume of Feed added corresponded to 5.7% (w/w) of the culture start volume for cell line 1 and to 3.1% (w/w) of the culture start volume for cell line 2.
(§2) The cysteine present in the Feed was replaced by different cysteine- and cystine derivatives at different percentages as presented in Table 2. A condition with only 50% of cysteine was added to test whether the improvements observed were due to the cysteine derivative or to the reduction of cysteine only. Osmolality was daily monitored using an osmometer from Advanced instrument. Off line pH, dissolved O2 and dissolved CO2 were daily monitored using a Nova Biomedical Phox (Nova biomedical). Metabolites concentrations were daily determined using a CedexBioHT system (Roche). Viable cell concentration and cell viability were measured daily using a ViCell automated cell counter (Beckman Coulter). The cell culture fluid was collected daily by centrifuging 1 mL of cell culture fluid for determination of antibody titer by HPLC prot A (waters) or using protein-L Octet measurement (Pall). At the end of the 14 days of culture, the cell culture fluid was harvested by centrifugation. The supernatant was then purified using a protein-A or L affinity chromatography (GE). The protein-A or L eluates were used for the molecular weight determination using UPLC size exclusion (Waters) and for the charge variants determination using isocapillary focusing (PROTEINSIMPLE iCE3). Another part of the protein-A eluates (only from cell line 1) was concentrated to 40 mg/mL using Amicon centricon centrifugal filter devices (Millipore). Color intensity of the concentrated antibody composition was measured in the concentrated protein A eluates using a spectrophotometer by transmission (UltrascanPro) and compared to the CIE (commission internationale de l'éclairage) scale. The numerical results were normalized to the concentration of 40 mg/mL.
The reproducibility of the results was evaluated in bioreactor with cell line 1. The experiments of Example 3 were repeated with an additional control and a bioreactor with 50% S-sulfocysteine 50% Cysteine Feed. The data from the two experiments were analyzed to confirm the effect previously observed with cysteine/cystine derivatives.

[3] = system: CHO-DG44 cells from cell line 1; assay: Fed-batch 2 L bioreactor culture with cysteine/cystine derivatives, cell line 1 (Example 3); settings: 50% replacement, cell line 1, 2 L bioreactor
Protocol: as §1, §2

[4] = system: CHO-DG44 cells producing a multispecific antibody derivative (cell line 2); assay: Fed-batch shake flask culture with cysteine/cystine derivatives, cell line 2 (Example 2); settings: 50% replacement; day 14; cell line 2, shake flask
Protocol: The ability of cysteine/cystine derivatives to reduce color and acidic species of a recombinant protein preparation in cell culture was evaluated using another antibody-producing cell line, cell line 2. For this experiment a scale-down model in shake flask was used. CHO-DG44 cells producing a multispecific antibody derivative were inoculated in 100 mL of basal media at a seeding density of 0.35×10^6 cells/mL. The shake flask vessels were 250 mL shake flasks (corning) disposed in an agitated incubator (Infors) protected from light. The cells were cultivated for 14 days at 36.8° C. with 80% of humidity. The cell cultures were agitated at 140 rpm at the beginning of the process. The agitation was increased during the process progressively to reach 250 rpm to maintain a DO % at 40% in the shake flask, as is it done in the 2 L bioreactor process. […]
The cysteine present in the Feed was replaced by different cysteine and cystine derivatives with a replacement ratio of 50% equimolar (Table 1). […] Osmolality was daily monitored using an osmometer from Advanced instrument. Off line pH, dissolved O2 and dissolved CO2 were daily monitored using a Nova Biomedical Phox (Nova biomedical). Metabolites concentrations were daily determined using a CedexBioHT system (Roche). Viable cell concentration and cell viability were measured daily using a ViCell automated cell counter (Beckman Coulter). […]

[5] = system: CHO-DG44 cells from cell line 2; assay: Fed-batch 2 L bioreactor culture with cysteine/cystine derivatives, cell line 2 (Example 3); settings: 50% replacement; cell line 2, 2 L bioreactor
Protocol: as §1, §2

CC(=O)N[C@@H](CS)C(=O)O [N-acetyl-L-cysteine, N-Acetyl-L-cysteine]
decrease of acidic species [1]: 12.5%
specific productivity ([2]; compared to 50% cysteine feed): did not impact the productivity
average decrease of acidic species level compared to control ([2]; data sets 1 and 2 average): 10%
average decrease of b value level (color intensity) compared to control ([2]; data sets 1 and 2 average): 13%
decrease in antibody titer compared to the controls average ([2]; data sets 1 and 2 average): 10%
main species level ([2]; data sets 1 and 2 average): increase of main species
cell growth (VCC) compared to control ([2]; from day 9, 2 L bioreactor, data sets 1 and 2): higher VCCs than the control conditions
decrease of acidic species level compared to control [3]: 10%
main species level [3]: increase of main species
decrease of the b value level (color intensity) compared to control ([3]; 40 mg/mL): 13%
decrease on acidic variants level compared to control [4]: 14.5%
decrease of acidic species level compared to control [5]: 13%
main species level [5]: increase of main species
